Experimental data as given in patent publication US20200291100A1, “TREATMENT OF AGE-RELATED AND MITOCHONDRIAL DISEASES BY INHIBITION OF HIF-1 ALPHA FUNCTION” (President and Fellows of Harvard College, priority 2012, published 2020).

How the values were obtained:
[1] = test system: C2C12 myoblasts; assay: DMOG treatment of C2C12 myoblasts, mtDNA content and ETC gene expression; format: cell-based, mouse; settings: 16 h
Protocol: To test if the normal hypoxic response reproduces the effect of a SIRT1 deletion by causing genome asynchrony, C2C12 myoblasts were grown under hypoxic conditions (1% oxygen) or treated with dimethyloxaloylglycine (DMOG), a HIFα prolyl hydroxylase inhibitor that stabilizes HIF.
C2C12 cell line (ATCC) was cultured in low glucose Dulbecco's modified eagle medium (DMEM) (Invitrogen) supplemented with 10% FBS (Invitrogen) and a mix of antibiotic and antimycotic (Invitrogen). To inhibit SIRT1, cells were treated the vehicle (0.001% DMSO) or 10 μM EX-527 (Tocris) for 12 h. C2C12 myoblasts were infected with an empty or SIRT1 adenovirus as described before (Gerhart-Hines et al., 2007) and the media was replaced with fresh DMEM for additional 48 h, after that the cells were treated as described before. To test the effects of hypoxia and HIFα stabilization in genome asyncrony, C2C12 myoblasts were exposed to 1% oxygen for 16 h or treated with the vehicle (0.001% DMSO) or DMOG (Cayman) for the same period of time.
RNA from skeletal muscle tissue and C2C12 cells were extracted with RNeasy mini kit (Qiagen) according to the instructions and quantified using the NanoDrop 1000 spectrophotometer (Thermo Scientific). cDNA was synthesized with the iSCRIP cDNA synthesis kit (BioRad) using 600 ng of RNA. Quantitative RT-PCR reactions were performed using 1 μM of primers and LightCycler® 480 SYBR Green Master (Roche) on an LightCycler® 480 detection system (Roche). Calculations were performed by a comparative method (2-ΔCT) using 18S as an internal control. For mtDNA analysis, total DNA was extracted with DNeasy blood and tissue kit (Qiagen). mtDNA was amplified using primers specific for the mitochondrial cytochrome c oxidase subunit 2 (COX2) gene and normalized to genomic DNA by amplification of the ribosomal protein s18 (rps18) nuclear gene. Primers were designed using the IDT software (IDT) and the primer sequences can be found in Table 1.

[2] = test system: PGC-1α/β KO cells; assay: Pyruvate supplementation of PGC-1α/β KO cells with or without DMOG, mitochondrial-encoded gene expression; format: cell-based, mouse; settings: DMOG added to pyruvate-treated cells
Description: FIGS. 21A-21N provide additional data related to the content of FIG. 14. FIG. 21A depicts HIF-1α target genes (PGK-1, Glut1, PDK1 and Vegfa) expression in gastrocnemius of WT and SIRT1 KO mice. Relative expression values were normalized to WT mice (n=5). FIG. 21B depicts hypoxia response element activity in primary myoblasts isolated from WT and SIRT1 KO mice and treated with or without DMOG. Relative luciferase activity was normalized to WT cells (n=6, *p<0.05 versus WT). FIG. 21C depicts a representative immunoblot of HIF-1a and Tubulin in PGC-1α/β KO myotubes treated with adenovirus overexpressing SIRT1 or empty vector as well as treatment with DMSO or with HIF stabilizing compound DMOG. FIG. 21D depicts NAD+/NADH ration measured in primary WT myoblasts treated with either 10 mM pyruvate, 10 mM lactate or vehicle for 24 h (n=4). […] FIG. 21J depicts mitochondrial DNA content analyzed by qPCR in control, HIF-1α DPA or HIF-2α DPA C2C12 cells treated with adenovirus overexpressing SIRT1 or empty vector. […] FIG. 21K depicts ARNT mRNA analyzed by qPCR in C2C12 cells infected with ARNT or nontargeting shRNA. […] FIG. 21L depicts mitochondrial DNA content analyzed by qPCR in C2C12 cells infected with ARNT or nontargeting shRNA. […] FIG. 21M depicts ND1, Cytb, COX1 and ATP6 mRNA analyzed by qPCR in C2C12 cells infected with ARNT or nontargeting shRNA. […] Values are expressed as mean±SEM. […]

COC(=O)CNC(=O)C(=O)OC [DMOG, dimethyloxaloylglycine]
expression of mitochondrially-encoded ETC genes [1]: specific decline
expression of nuclear-encoded ETC components [1]: but not the nuclear-encoded components
mtDNA content [1]: specific decline
effect on NAD+ mediated increases in mitochondrial-encoded genes [2]: inhibited
